Source: patent publication US20230023559A1, “ARYLMETHYLENE HETEROCYCLIC COMPOUNDS AS KV1.3 POTASSIUM SHAKER CHANNEL BLOCKERS” (D. E. Shaw Research, LLC, priority 2019, published 2023)

Columns and labels:
hERG channel = hERG channel (Homo sapiens, UniProt Q12809); experiment: hERG electrophysiology, automated whole-cell patch clamp (Patchliner)
Kv1.3 potassium channel = biological target: T1, Kv1.3 potassium channel (Homo sapiens, UniProt P22001); experiment: Kv1.3 potassium channel blocker activity, automated whole-cell patch clamp (Patchliner); type: cell-based; conditions: CHO-K1 cells stably expressing Kv1.3; whole cell current inhibition; read-out: Kv1.3_IC50
T1 construct: expressed in transfected cells
T1 sequence (P22001 whole entry): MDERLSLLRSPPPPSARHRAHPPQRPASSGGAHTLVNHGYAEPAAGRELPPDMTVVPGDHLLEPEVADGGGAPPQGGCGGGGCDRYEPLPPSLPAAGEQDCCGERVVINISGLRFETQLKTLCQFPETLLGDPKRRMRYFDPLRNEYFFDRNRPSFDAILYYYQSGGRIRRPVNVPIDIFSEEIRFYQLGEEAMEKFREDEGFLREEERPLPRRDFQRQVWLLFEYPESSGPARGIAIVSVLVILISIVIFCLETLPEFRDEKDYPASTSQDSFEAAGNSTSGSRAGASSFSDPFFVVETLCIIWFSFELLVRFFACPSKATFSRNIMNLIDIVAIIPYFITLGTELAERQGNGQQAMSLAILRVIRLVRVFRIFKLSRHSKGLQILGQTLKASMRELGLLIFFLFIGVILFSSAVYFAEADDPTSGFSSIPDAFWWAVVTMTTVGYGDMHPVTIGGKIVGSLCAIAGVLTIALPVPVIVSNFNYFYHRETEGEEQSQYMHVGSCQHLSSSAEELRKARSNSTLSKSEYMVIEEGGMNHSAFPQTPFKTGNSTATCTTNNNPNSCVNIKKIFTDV
How it was run: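 CHO-K1 cells stably expressing Kv1.3, automated whole-cell patch clamp. Currents evoked by 100 ms steps from −90 mV holding to +40 mV at 0.1 Hz, sampled at 10 kHz unfiltered, P/4 leak subtraction; peak current inhibition measured, compound incubation ≤10 s between pulse trains.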

Chain of hERG channel (Q12809 whole entry): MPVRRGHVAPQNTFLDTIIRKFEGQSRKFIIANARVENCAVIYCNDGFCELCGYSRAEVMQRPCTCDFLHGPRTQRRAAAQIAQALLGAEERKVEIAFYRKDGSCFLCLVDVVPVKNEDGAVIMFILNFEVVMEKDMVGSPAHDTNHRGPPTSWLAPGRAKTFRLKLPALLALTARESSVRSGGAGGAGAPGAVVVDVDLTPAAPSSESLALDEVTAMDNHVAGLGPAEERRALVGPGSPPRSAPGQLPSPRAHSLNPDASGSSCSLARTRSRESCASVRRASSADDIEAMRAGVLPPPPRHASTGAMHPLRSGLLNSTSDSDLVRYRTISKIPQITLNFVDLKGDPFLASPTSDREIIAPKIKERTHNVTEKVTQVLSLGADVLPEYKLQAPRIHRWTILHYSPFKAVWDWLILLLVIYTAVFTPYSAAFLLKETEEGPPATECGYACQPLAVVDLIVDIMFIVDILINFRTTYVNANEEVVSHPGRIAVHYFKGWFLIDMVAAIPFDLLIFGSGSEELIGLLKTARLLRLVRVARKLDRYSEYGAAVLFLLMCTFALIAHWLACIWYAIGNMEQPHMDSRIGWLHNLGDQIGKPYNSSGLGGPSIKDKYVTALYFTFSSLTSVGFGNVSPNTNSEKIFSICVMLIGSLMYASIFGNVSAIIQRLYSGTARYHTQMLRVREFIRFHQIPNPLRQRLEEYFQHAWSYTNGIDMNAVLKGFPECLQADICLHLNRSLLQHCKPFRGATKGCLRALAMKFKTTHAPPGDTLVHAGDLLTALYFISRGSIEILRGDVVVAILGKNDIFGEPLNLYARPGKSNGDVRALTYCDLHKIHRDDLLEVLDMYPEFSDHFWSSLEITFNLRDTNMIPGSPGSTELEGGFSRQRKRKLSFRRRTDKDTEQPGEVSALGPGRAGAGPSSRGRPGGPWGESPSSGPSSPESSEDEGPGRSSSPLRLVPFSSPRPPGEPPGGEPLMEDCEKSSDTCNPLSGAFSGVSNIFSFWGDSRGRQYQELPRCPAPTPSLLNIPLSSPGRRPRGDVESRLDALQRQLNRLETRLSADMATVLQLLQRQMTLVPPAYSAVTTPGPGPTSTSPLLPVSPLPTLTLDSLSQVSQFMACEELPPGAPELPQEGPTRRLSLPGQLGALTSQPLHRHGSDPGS

IC50 (Kv1.3 potassium channel) [µM] | Structure (SMILES) | IC50 (hERG channel) [µM]
< 0.5 | N[C@@H](c1cc(Cl)c(Cl)cc1O)C1CCN(C(=O)[C@H]2CCNC2)CC1 (single isomer, unassigned) [Compound 85] | > 30
< 0.5 | O=C([C@@H]1CCNC1)N1CCC([C@H](O)c2cc(Cl)c(Cl)cc2O)CC1 (single isomer, unassigned) [Compound 115] | > 30
< 0.5 | O=C([C@@H]1CCNC1)N1CCC([C@@H](O)c2cc(Cl)c(Cl)cc2O)CC1 (single isomer, unassigned) [Compound 116] | > 30
< 0.5 | N[C@@H](c1cc(Cl)c(Cl)cc1O)C1CCN(C(=O)[C@H](O)CO)CC1 (single isomer, unassigned) [Compound 119] | > 30
< 0.5 | N[C@@H](c1cc(Cl)c(Cl)cc1O)C1CCN(C(=O)[C@@H](O)CO)CC1 (single isomer, unassigned) [Compound 120] | > 30
< 0.5 | O=C([C@@H]1CCNC1)N1CCC([C@@H](O)c2c(O)ccc(Cl)c2Cl)CC1 (single isomer, unassigned) [Compound 123, Trifluoroacetic Acid] | > 30
< 0.5 | N[C@@H](c1cc(Cl)c(Cl)cc1O)C1CCN(S(=O)(=O)[C@@H]2CCNC2)CC1 (single isomer, unassigned; isomer 1) [Compound 112] | > 30
< 10 | N[C@@H](c1cc(Cl)c(Cl)cc1O)C1CCN(C(=O)[C@H]2CC[C@H](O)C2)CC1 (single isomer, unassigned; isomer 1) [Compound 177] | < 30
< 10 | C[C@@](O)(CO)C(=O)N1CCC([C@@H](N)c2cc(Cl)c(Cl)cc2O)CC1 (single isomer, unassigned; isomer 1) [Compound 217] | > 30
< 0.5 | N[C@@H](c1cc(Cl)c(Cl)cc1O)C1CCN(C(=O)[C@H]2CCC(=O)NC2)CC1 (single isomer, unassigned; isomer 1) [Compound 221] | > 30
< 0.5 | N[C@@H](c1cc(Cl)c(Cl)cc1O)C1CCN(C(=O)[C@@H]2CNC(=O)C2)CC1 (single isomer, unassigned; isomer 1) [Compound 296] | > 30
< 0.5 | CC1CN(C(=O)[C@H](O)CO)CCC1[C@@H](N)c1cc(Cl)c(Cl)cc1O (single isomer, unassigned; isomer 1) [Compound 331] | > 30
< 0.5 | N[C@@H](c1cc(Cl)c(Cl)cc1O)C1CCN(C(=O)[C@H]2CNC(=O)OC2)CC1 (single isomer, unassigned; isomer 1) [Compound 338] | > 30
< 0.5 | N[C@@H](c1cc(Cl)c(Cl)cc1O)C1CCN(S(=O)(=O)[C@H]2CCNC2)CC1 (single isomer, unassigned; isomer 2) [Compound 118] | > 30
< 0.5 | N[C@@H](c1cc(Cl)c(Cl)cc1O)C1CCN(C(=O)[C@@H]2CC[C@H](O)C2)CC1 (single isomer, unassigned; isomer 2) [Compound 179] | < 30
< 0.5 | N[C@@H](c1cc(Cl)c(Cl)cc1O)C1CCN(C(=O)[C@@H]2CNC(=O)OC2)CC1 (single isomer, unassigned; isomer 2) [Compound 210] | > 30
< 10 | C[C@](O)(CO)C(=O)N1CCC([C@@H](N)c2cc(Cl)c(Cl)cc2O)CC1 (single isomer, unassigned; isomer 2) [Compound 218] | > 30
< 0.5 | N[C@@H](c1cc(Cl)c(Cl)cc1O)C1CCN(C(=O)[C@@H]2CCC(=O)NC2)CC1 (single isomer, unassigned; isomer 2) [Compound 222] | > 30
< 0.5 | N[C@@H](c1cc(Cl)c(Cl)cc1O)C1CCN(C(=O)[C@H]2CNC(=O)C2)CC1 (single isomer, unassigned; isomer 2) [Compound 246] | > 30
< 0.5 | N[C@@H](c1cc(Cl)c(Cl)cc1O)C1CCN(C(=O)[C@H]2CNC(=O)CO2)CC1 (single isomer, unassigned; isomer 2) [Compound 276] | > 30
< 0.5 | C[C@H]1CN(C(=O)[C@H](O)CO)CC[C@H]1[C@@H](N)c1cc(Cl)c(Cl)cc1O (single isomer, unassigned; isomer 2) [Compound 332] | > 30
< 0.5 | O=S(=O)([C@H]1CCNC1)N1CCC([C@H](O)c2cc(Cl)c(Cl)cc2O)CC1 (single isomer, unassigned; isomer 3) [Compound 121, 4,5-dichloro-2-(hydroxy(1-(pyrrolidin-3-ylsulfonyl)piperidin-4-yl)methyl)phenol Isomer 3] | > 30

The remaining lines, values behind:

Structure (SMILES) | IC50 (Kv1.3 potassium channel) [µM] | IC50 (hERG channel) [µM]
N[C@@H](c1cc(Cl)c(Cl)cc1O)[C@H]1CCNC1 (single isomer, unassigned; diastereoisomer 1) [Compound 32, 2-(amino(pyrrolidin-3-yl)methyl)-4,5-dichlorophenol Trifluoroacetic Acid Diastereoisomer 1] | < 10 | > 30
N[C@@H](c1cc(Cl)c(Cl)cc1O)[C@@H]1CCNC1 (single isomer, unassigned; diastereoisomer 2) [Compound 33, 2-(amino(pyrrolidin-3-yl)methyl)-4,5-dichlorophenol Trifluoroacetic Acid Diastereoisomer 2] | < 10 | > 30
N[C@@H](c1cc(Cl)c(Cl)cc1O)[C@@H]1CCC(=O)NC1 (single isomer, unassigned; diastereoisomer 2) [Compound 39, 5-(amino(4,5-dichloro-2-hydroxyphenyl)methyl)piperidin-2-one Diastereoisomer 2] | < 10 | > 30
NC(c1cc(Cl)c(Cl)cc1O)C1CCNCC1 (stereo not drawn) [Compound 1, 2-(amino(piperidin-4-yl)methyl)-4,5-dichlorophenol Trifluoroacetic Acid] | < 10 | > 30
Oc1cc(Cl)c(Cl)cc1C(O)C1CCNCC1 (stereo not drawn) [Compound 2, 4,5-dichloro-2-[hydroxy(piperidin-4-yl)methyl]phenol] | < 10 | > 30
CC(=O)N1CCC(C(O)c2cc(Cl)c(Cl)cc2O)CC1 (stereo not drawn) [Compound 4, 1-(4-((4,5-dichloro-2-hydroxyphenyl)(hydroxy)methyl)piperidin-1-yl)ethanone] | < 10 | > 30
CC(=O)N1CCC(C(N)c2cc(Cl)c(Cl)cc2O)CC1 (stereo not drawn) [Compound 9, 1-(4-(amino(4,5-dichloro-2-hydroxyphenyl)methyl)piperidin-1-yl)ethanone] | < 10 | > 30
CC(=O)NC(c1cc(Cl)c(Cl)cc1O)C1CCNCC1 (stereo not drawn) [Compound 11, N-[(4,5-dichloro-2-hydroxyphenyl)(piperidin-4-yl)methyl]acetamide] | < 10 | > 30
CN1CCC(C(N)c2cc(Cl)c(Cl)cc2O)CC1 (stereo not drawn) [Compound 21, 2-(amino(1-methylpiperidin-4-yl)methyl)-4,5-dichlorophenol] | < 10 | < 30
Oc1ccc2ccccc2c1C(O)C1CCNCC1 (stereo not drawn) [Compound 30, 1-(hydroxy(piperidin-4-yl)methyl)naphthalen-2-ol] | < 10 | > 30
CNC(c1cc(Cl)c(Cl)cc1O)C1CCNCC1 (stereo not drawn) [Compound 31, 4,5-dichloro-2-[(methylamino)(piperidin-4-yl)methyl]phenol Trifluoroacetic Acid] | < 10 | > 30
NC(c1c(O)ccc2ccccc12)C1CCNCC1 (stereo not drawn) [Compound 34, 1-(amino(piperidin-4-yl)methyl)naphthalen-2-ol Trifluoroacetic Acid] | < 30 | > 30
CC(=O)NC(c1c(O)ccc2ccccc12)C1CCNCC1 (stereo not drawn) [Compound 36, N-[(2-hydroxynaphthalen-1-yl)(piperidin-4-yl)methyl]acetamide Trifluoroacetic Acid] | < 10 | > 30
NC(c1c(O)cc(Cl)c(Cl)c1Cl)C1CCNCC1 (stereo not drawn) [Compound 37, 2-[amino(piperidin-4-yl)methyl]-3,4,5-trichlorophenol Trifluoroacetic Acid] | < 10 | > 30
NC(c1cc(Cl)c(Cl)cc1O)C1CC2CCC(C1)N2 (stereo not drawn) [Compound 42, 2-[amino(8-azabicyclo[3.2.1]octan-3-yl)methyl]-4,5-dichlorophenol Trifluoroacetic Acid] | < 10 | > 30
CC(C)C(=O)N1CCC(C(N)c2cc(Cl)c(Cl)cc2O)CC1 (stereo not drawn) [Compound 43, 1-[4-[amino(4,5-dichloro-2-hydroxyphenyl)methyl]piperidin-1-yl]-2-methylpropan-1-one Trifluoroacetic Acid] | < 10 | < 30
NC(c1cc(Cl)c(Cl)cc1O)C1CCN(C2CCOCC2)CC1 (stereo not drawn) [Compound 44, 2-(amino(1-(tetrahydro-2H-pyran-4-yl)piperidin-4-yl)methyl)-4,5-dichlorophenol] | < 10 | < 30
NC(c1cc(Cl)c(Cl)cc1O)C1CCN(S(=O)(=O)N2CCCC2)CC1 (stereo not drawn) [Compound 45, 2-(amino(1-(pyrrolidin-1-ylsulfonyl)piperidin-4-yl)methyl)-4,5-dichlorophenol Trifluoroacetic Acid] | < 10 | < 30
CN(C)C(=O)N1CCC(C(N)c2cc(Cl)c(Cl)cc2O)CC1 (stereo not drawn) [Compound 46, 4-(amino(4,5-dichloro-2-hydroxyphenyl)methyl)-N,N-dimethylpiperidine-1-carboxamide] | < 10 | < 30
NC(c1cc(Cl)c(Cl)cc1O)C1CCN(C(=O)CO)CC1 (stereo not drawn) [Compound 47, 1-[4-[amino(4,5-dichloro-2-hydroxyphenyl)methyl]piperidin-1-yl]-2-hydroxyethan-1-one] | < 0.5 | > 30
